The values below come from US5728727A, “Antiosteoporotic compound” (American Home Products Corporation, priority 1996, dated 1998).

In one test the test system is osteoclasts. The test can be described thus: inhibition of bone resorption by osteoclasts (pits excavated per bone slice). Format: cell-based. Conditions: Osteoclast, neonatal rat osteoclasts on bovine cortical bone slices, 24 h. Here is the method: Briefly, osteoclasts were isolated from neonatal rat long bones by mincing the bones in Medium 199 containing Hank's salts (3 ml per 10 bones from each of 5 animals). Osteoclasts were dislodged from the bone fragments by aspirating the bone fragments 50 times into and out of a transfer pipette. 100 μl of the resulting cell suspension from each animal was then plated onto each of 3 (per dose) 4.4 mm^2 slices of devitalized bovine femoral cortical bone that had been placed in the wells of a 96 well plate and pre-wetted with 100 μl of the medium. The osteoclasts were then allowed to adhere for 25 minutes at 37° C. The slices, with adherent osteoclasts, were then rinsed in 5 ml of medium to remove non-adherent cells. The slices were then transferred to Medium 199 containing Earle's salts with only 0.7 g/L NaHCO3 (to ensure that the medium equilibrates to a pH of 6.8-7.1 in a 5% CO2 atmosphere) and 10% heat-inactivated fetal bovine serum. […] The excavations (pits) made by the osteoclasts in the surface of the bone were visualized by staining with 1% toluidine blue for 3 minutes and bone resorption quantified microscopically by counting the number of pits excavated per slice.

The target in test [1] is T1, calcitonin receptor (Homo sapiens, UniProt P30988).
T1 construct: host or cells: T-47D
T1 sequence (P30988 25-474): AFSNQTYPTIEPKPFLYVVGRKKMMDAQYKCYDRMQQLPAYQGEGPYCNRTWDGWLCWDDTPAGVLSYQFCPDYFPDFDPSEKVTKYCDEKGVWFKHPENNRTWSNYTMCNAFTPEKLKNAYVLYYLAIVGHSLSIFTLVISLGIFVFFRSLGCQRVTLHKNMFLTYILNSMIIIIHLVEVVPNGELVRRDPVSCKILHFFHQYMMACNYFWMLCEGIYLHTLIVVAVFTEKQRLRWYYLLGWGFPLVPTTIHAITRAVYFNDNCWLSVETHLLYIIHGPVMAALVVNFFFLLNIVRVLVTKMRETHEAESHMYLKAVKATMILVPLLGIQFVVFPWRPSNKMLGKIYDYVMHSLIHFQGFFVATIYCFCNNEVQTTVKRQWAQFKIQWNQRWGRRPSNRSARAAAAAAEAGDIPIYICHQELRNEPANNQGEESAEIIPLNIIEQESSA
As to the kind of experiment: calcitonin agonist test: cAMP generation in T-47D cells. Format: cell-based. Conditions: for cAMP: basal 1. From the text: The second in vitro standard pharmacological test procedure determines the ability of the compound to be evaluated to act as a calcitonin agonist, by measuring the levels of cAMP produced in response to the test compound. The following briefly describes the procedure used and the results obtained.
cAMP was generated in T-47D cells (a human mammary carcinoma cell line available from the American Type Culture Collection, Rockville, Md., USA) according to the following procedure. […] After the incubation was completed, the growth medium was aspirated from the cells in the plate.
Fifty ul of antiserum was added to all wells with the exception of the non-specific binding wells (NSB). Fifty ul of the SPA anti-rabbit reagent was added to all wells.
Intracellular cAMP levels in the T-47D cells following salmon calcitonin stimulation for 10 rain at 37° C. are as follow: […]

Test [2] has as its target T2, calcitonin receptor (Rattus norvegicus, UniProt P32214).
T2 construct: Kidneys were removed and placed in ice cold saline; from tissue; host or cells: Sprague-Dawley rat kidney, renal plasma membrane
T2 sequence (P32214 25-479 isoform P32214-2 limits assumed): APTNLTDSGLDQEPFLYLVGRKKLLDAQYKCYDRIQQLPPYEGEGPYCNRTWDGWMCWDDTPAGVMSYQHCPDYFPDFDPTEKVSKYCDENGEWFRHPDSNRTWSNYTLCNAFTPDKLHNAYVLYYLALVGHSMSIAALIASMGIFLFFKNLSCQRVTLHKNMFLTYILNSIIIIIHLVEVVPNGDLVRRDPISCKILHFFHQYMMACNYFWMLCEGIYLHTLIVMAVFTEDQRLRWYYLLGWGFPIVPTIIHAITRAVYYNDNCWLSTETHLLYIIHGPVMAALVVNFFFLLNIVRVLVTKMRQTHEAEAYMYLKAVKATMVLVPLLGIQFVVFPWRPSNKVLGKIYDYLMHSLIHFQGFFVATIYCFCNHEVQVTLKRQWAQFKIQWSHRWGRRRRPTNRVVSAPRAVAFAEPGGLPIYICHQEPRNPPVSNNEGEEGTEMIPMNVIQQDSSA
As to the kind of experiment: binding to the calcitonin receptor (125I-salmon calcitonin displacement, rat renal plasma membrane). Also on record: species or system rat (Sprague-Dawley). Here is the method:
The first in vitro standard pharmacological test procedure measures the ability of the compound to be evaluated to bind to the calcitonin receptor. The following describes the procedure used and the results obtained.
Adult female or male Sprague-Dawley rats (250-350 gm), were euthanized by CO2 asphyxiation. Kidneys were removed and placed in ice cold saline; all subsequent procedures were carded out at 4° C. Kidneys were decapsulated and coarsely minced with scissors. […]
Samples were incubated for 1 hour at room temperature. […] The filters were counted for a period of 2 minutes per sample utilizing an LKB Betaplate Reader.

A short description of test [3]: effect on serum calcium levels in young growing rats. Format: in vivo, rat. Also on record: Serum Calcium: unit not given here. Conditions: for Serum Calcium: mean. The protocol:
{5R*-[6R*, 7S*, 8R*, 9R*, 12S*, 16S*, 18S*, 19S*, (13E)]} 4, 7, 19-Trihydroxy-2, 6, 8, 12, 12, 14, 16, 18-heptamethyl-6, 7, 8, 9, 10, 11, 12, 15, 16, 17, 18, 19-dodecahydro-1, 19:5, 9-diepoxybenzocyclooctadecen-3(5H)-one was also evaluated in an in vivo standard pharmacological test procedure that measures the effect of the test compound on serum calcium levels. Agents that inhibit bone resorption, such as calcitonin, regulate circulating calcium levels by inhibiting osteoclast mediated osteolysis and thereby inhibit the release of calcium from bone. The decrease in serum calcium levels following drug treatment indicates bone sparing activity. Calcitonin acts on specific membrane receptors of the bone resorbing osteoclast cells eliciting second messenger events such as increased cAMP generation that leads to inhibition of the cell's motility and inhibition of its bone resorbing functional activity. If bone turnover activity is high, such as in the young growing rat, this rapid inhibition in bone resorption is reflected by a transient decrease in circulating calcium. […] Young adult male rats weighing 160-170 g were held for at least 72 hours after receipt to acclimatize to colony conditions and then were randomly assigned to groups of 5-7 rats/group for treatment. The rats were administered vehicle or test compound, and at intervals between 0.5 and 3 hours after dosing, 1.0 ml of blood was collected from each rat under ketamin/acepromazine anesthesia via tail artery or (terminal via) cardiac puncture. Serum was evaluated for total calcium using a NOVA 7+7 blood analyzer.
In this standard pharmacological test procedure, all animals were dosed at 0 hours. For animals treated with the compound of Formula I, animals were bled sequentially. For animals treated with salmon calcitonin and untreated normal animals, a different group was used at each time point.

For `CC1=C2O[C@]3(O)C=C2C(=C(O)C1=O)[C@@H]1O[C@H](CC[C@H](C)/C=C(\C)C[C@@H](C)C[C@@H]3C)[C@H](C)[C@H](O)[C@H]1C` (relative stereo) [Formula I, {5R*-[6R*, 7S*, 8R*, 9R*, 12S*, 16S*, 18S*, 19S*, (13E)]} 4,7, 19-Trihydroxy-2,6,8, 12, 12, 14, 16, 18-heptamethyl-6,7,8,9, 10, 11, 12, 15, 16, 17, 18, 19-dodecahydro-1, 19:5,9-diepoxybenzocyclooctadecen-3(5H)-one], the IC50 with osteoclasts was 0.8 µg/mL; at calcitonin receptor [2] (1 hour at room temperature), 20.5 µM. Besides, at calcitonin receptor [1] (10 min at 37° C., 10 μM IBMX, read-out: EC50, cAMP production (converted)), the EC50 was 0.616 µM. Further, the “calcitonin agonist activity (in words)” value on calcitonin receptor [1] (cAMP) is on record as “potent calcitonin agonist”. Further, at calcitonin receptor [2], the “inhibition of the binding of calcitonin to the calcitonin receptor (in words)” value is reported as “competitively inhibited”. Also, the “Serum Calcium” value in test [3] (10 mg/kg, i.p., 0.5 hours, normals 10.92) is 10.73; in test [3] (10 mg/kg, i.p., 1.5 hours, normals 10.88, p < 0.01), 10.21; in test [3] (10 mg/kg, i.p., 3.0 hours, normals 10.40, p < 0.01), 9.99; in test [3] (30 mg/kg, i.p., 0.5 hours, normals 10.92), 10.60; in test [3] (30 mg/kg, i.p., 1.5 hours, normals 10.88, p < 0.05), 10.43; in test [3] (30 mg/kg, i.p., 3.0 hours, normals 10.40), 10.18. The “Serum Calcium” value in test [3] (100 mg/kg, i.p., 0.5 hours, normals 10.92, p < 0.01) turned out to be 10.29; in test [3] (100 mg/kg, i.p., 1.5 hours, normals 10.88, p < 0.01) it was 10.19; in test [3] (100 mg/kg, i.p., 3.0 hours, normals 10.40, p < 0.05), 10.06. In addition, in test [3] (young growing rats, summary statement), the “reduction of serum calcium levels (in words)” value is “significantly reduced serum calcium levels”.

As for Salmon Calcitonin, the cAMP at calcitonin receptor [1] (calcitonin 0.0001 nM, 10 min at 37° C.) was 2 pmol/mL; on calcitonin receptor [1] (calcitonin 0.001 nM, 10 min at 37° C.), 13 pmol/mL; at calcitonin receptor [1] (calcitonin 0.01 nM, 10 min at 37° C.), 105 pmol/mL; at calcitonin receptor [1] (calcitonin 0.1 nM, 10 min at 37° C.) it was over 640 pmol/mL. Also, the “Serum Calcium” value in test [3] (5 IU/rat, s.c., 0.5 hours, normals 10.92, p < 0.01) is given as 8.17; in test [3] (5 IU/rat, s.c., 1.5 hours, normals 10.88, p < 0.01), 7.45; in test [3] (5 IU/rat, s.c., 3.0 hours, normals 10.40, p < 0.01) it was 6.65.
